In patent US9963442B2, “Pyridones as herbicides” (E I DU PONT DE NEMOURS AND COMPANY, priority 2014, dated 2018):

Assays:
Format in all cases: in vivo
[1] = system: ducksalad (Heteranthera limosa); assay: Test B flooded paddy test; set-up: key: 0 = no effect, 100 = complete control; settings: Flood, 250 g ai/ha applied to paddy water at 2-leaf stage; visually evaluated after 13 to 15 days; scale 0 (no effect) to 100 (complete control)
How it was run: (§1)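 First, plants reach the 2-leaf stage; next, pots are flooded to 3 cm and compound is delivered into the water; finally, after 13 to 15 greenhouse days at constant depth, injury is graded visually from 0 to 100 against controls.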

[2] = system: barnyardgrass (Echinochloa crus-galli); assay: Test B flooded paddy test; set-up: key: 0 = no effect, 100 = complete control; settings: Flood, 250 g ai/ha applied to paddy water at 2-leaf stage; visually evaluated after 13 to 15 days; scale 0 (no effect) to 100 (complete control)
How it was run: as §1

[3] = system: sedge, umbrella (small-flower umbrella sedge, Cyperus difformis); assay: Test B flooded paddy test; set-up: key: 0 = no effect, 100 = complete control; settings: Flood, 250 g ai/ha applied to paddy water at 2-leaf stage; visually evaluated after 13 to 15 days; scale 0 (no effect) to 100 (complete control)
How it was run: as §1

rice (Oryza sativa) = assay: Test B flooded paddy test; set-up: key: 0 = no effect, 100 = complete control; settings: Flood, 250 g ai/ha applied to paddy water at 2-leaf stage; visually evaluated after 13 to 15 days; scale 0 (no effect) to 100 (complete control)
How it was run: as §1

[4] = system: large (Lg) crabgrass (Digitaria sanguinalis); assay: Test C preemergence; settings: scale 0 to 100, 0 is no effect, 100 is complete control
Description: (§2) Seeds of plant species selected from blackgrass (Alopecurus myosuroides), Italian ryegrass (Lolium multiflorum), winter wheat (Triticum aestivum), galium (catchweed bedstraw, Galium aparine), corn (Zea mays), large (Lg) crabgrass (Digitaria sanguinalis), giant foxtail (Setaria faberii), johnsongrass (Sorghum halepense), lambsquarters (Chenopodium album), morningglory (Ipomoea coccinea), yellow nutsedge (Cyperus esculentus), pigweed (Amaranthus retroflexus), ragweed (common ragweed, Ambrosia elatior), soybean (Glycine max), barnyardgrass (Echinochloa crus-galli), oilseed rape (Brassica napus), waterhemp (common waterhemp, Amaranthus rudis), and velvetleaf (Abutilon theophrasti) were planted into a blend of loam soil and sand and treated preemergence with test chemicals formulated in a non-phytotoxic solvent mixture which included a surfactant. At the same time, plants selected from these crop and weed species and also chickweed (common chickweed, Stellaria media), kochia (Kochia scoparia), and wild oat (Avena fatua), were planted in pots containing Sunshine Redi-Earth® planting medium comprising spaghnum peat moss, vermiculite, starter nutrients and dolomitic limestone and treated with postemergence applications of test chemicals formulated in the same manner. Plants ranged in height from 2 to 18 cm (1- to 4-leaf stage) for postemergence treatments. Treated plants and controls were maintained in a greenhouse for 13 to 15 days, after which time all species were compared to controls and visually evaluated. Plant response ratings, summarized in Table C, are based on a scale of 0 to 100 where 0 is no effect and 100 is complete control. A dash (-) response means no test result.

[5] = system: ragweed (common ragweed, Ambrosia elatior); assay: Test C preemergence; settings: scale 0 to 100, 0 is no effect, 100 is complete control
Description: as §2

[6] = system: waterhemp (common waterhemp, Amaranthus rudis); assay: Test C preemergence; settings: scale 0 to 100, 0 is no effect, 100 is complete control
Description: as §2

[7] = system: Italian ryegrass (Lolium multiflorum); assay: Test C preemergence; settings: scale 0 to 100, 0 is no effect, 100 is complete control
Description: as §2

[8] = system: pigweed (Amaranthus retroflexus); assay: Test C preemergence; settings: scale 0 to 100, 0 is no effect, 100 is complete control
Description: as §2

[9] = system: winter wheat (Triticum aestivum); assay: Test C preemergence; settings: scale 0 to 100, 0 is no effect, 100 is complete control
Description: as §2

[10] = system: velvetleaf (Abutilon theophrasti); assay: Test C preemergence; settings: scale 0 to 100, 0 is no effect, 100 is complete control
Description: as §2

[11] = system: morningglory (Ipomoea coccinea); assay: Test C preemergence; settings: scale 0 to 100, 0 is no effect, 100 is complete control
Description: as §2

[12] = system: blackgrass (Alopecurus myosuroides); assay: Test C preemergence; settings: scale 0 to 100, 0 is no effect, 100 is complete control
Description: as §2

corn (Zea mays) = assay: Test C preemergence; settings: scale 0 to 100, 0 is no effect, 100 is complete control
Description: as §2

[13] = system: giant foxtail (Setaria faberii); assay: Test C preemergence; settings: scale 0 to 100, 0 is no effect, 100 is complete control
Description: as §2

[14] = system: barnyardgrass (Echinochloa crus-galli); assay: Test C preemergence; settings: scale 0 to 100, 0 is no effect, 100 is complete control
Description: as §2

[15] = system: galium (catchweed bedstraw, Galium aparine); assay: Test C preemergence; settings: scale 0 to 100, 0 is no effect, 100 is complete control
Description: as §2

[16] = system: lambsquarters (Chenopodium album); assay: Test C preemergence; settings: scale 0 to 100, 0 is no effect, 100 is complete control
Description: as §2

[17] = system: oilseed rape (Brassica napus); assay: Test C preemergence; settings: scale 0 to 100, 0 is no effect, 100 is complete control
Description: as §2

[18] = system: yellow nutsedge (Cyperus esculentus); assay: Test C preemergence; settings: scale 0 to 100, 0 is no effect, 100 is complete control
Description: as §2

O=c1cccc(Oc2ncc(Cl)cn2)n1-c1ccc(C(F)(F)F)cc1 [Compound 10]
Plant response rating, Ducksalad [1]: 65 | Plant response rating, Barnyardgrass [2]: 30 | Plant response rating, Sedge, Umbrella [3]: 90 | Plant response rating, Rice (rice (Oryza sativa)): 20 | Plant response rating, Crabgrass, Large ([4]; 16 g ai/ha): 75 | Plant response rating, Crabgrass, Large ([4]; 31 g ai/ha): 98 | Plant response rating, Crabgrass, Large ([4]; 62 g ai/ha): 100 | Plant response rating, Crabgrass, Large ([4]; 125 g ai/ha): 100 | Plant response rating, Ragweed ([5]; 16 g ai/ha): 35 | Plant response rating, Ragweed ([5]; 31 g ai/ha): 25 | Plant response rating, Ragweed ([5]; 62 g ai/ha): 25 | Plant response rating, Ragweed ([5]; 125 g ai/ha): 65 | Plant response rating, Waterhemp ([6]; 16 g ai/ha): 70 | Plant response rating, Waterhemp ([6]; 31 g ai/ha): 95 | Plant response rating, Waterhemp ([6]; 62 g ai/ha): 100 | Plant response rating, Waterhemp ([6]; 125 g ai/ha): 100 | Plant response rating, Ryegrass, Italian ([7]; 16 g ai/ha): 0 | Plant response rating, Ryegrass, Italian ([7]; 31 g ai/ha): 10 | Plant response rating, Ryegrass, Italian ([7]; 62 g ai/ha): 90 | Plant response rating, Ryegrass, Italian ([7]; 125 g ai/ha): 85 | Plant response rating, Pigweed ([8]; 16 g ai/ha): 55 | Plant response rating, Pigweed ([8]; 31 g ai/ha): 65 | Plant response rating, Pigweed ([8]; 62 g ai/ha): 100 | Plant response rating, Pigweed ([8]; 125 g ai/ha): 100 | Plant response rating, Wheat ([9]; 16 g ai/ha): 0 | Plant response rating, Wheat ([9]; 31 g ai/ha): 0 | Plant response rating, Wheat ([9]; 62 g ai/ha): 5 | Plant response rating, Wheat ([9]; 125 g ai/ha): 5 | Plant response rating, Velvetleaf ([10]; 16 g ai/ha): 0 | Plant response rating, Velvetleaf ([10]; 31 g ai/ha): 20 | Plant response rating, Velvetleaf ([10]; 62 g ai/ha): 40 | Plant response rating, Velvetleaf ([10]; 125 g ai/ha): 55 | Plant response rating, Morningglory ([11]; 16 g ai/ha): 0 | Plant response rating, Morningglory ([11]; 31 g ai/ha): 0 | Plant response rating, Morningglory ([11]; 62 g ai/ha): 15 | Plant response rating, Morningglory ([11]; 125 g ai/ha): 55 | Plant response rating, Blackgrass ([12]; 16 g ai/ha): 15 | Plant response rating, Blackgrass ([12]; 31 g ai/ha): 60 | Plant response rating, Blackgrass ([12]; 62 g ai/ha): 95 | Plant response rating, Blackgrass ([12]; 125 g ai/ha): 95 | Plant response rating, Corn (corn (Zea mays); 16 g ai/ha): 0 | Plant response rating, Corn (corn (Zea mays); 31 g ai/ha): 0 | Plant response rating, Corn (corn (Zea mays); 62 g ai/ha): 10 | Plant response rating, Corn (corn (Zea mays); 125 g ai/ha): 5 | Plant response rating, Foxtail, Giant ([13]; 16 g ai/ha): 55 | Plant response rating, Foxtail, Giant ([13]; 31 g ai/ha): 90 | Plant response rating, Foxtail, Giant ([13]; 62 g ai/ha): 100 | Plant response rating, Foxtail, Giant ([13]; 125 g ai/ha): 100 | Plant response rating, Barnyardgrass ([14]; 16 g ai/ha): 15 | Plant response rating, Barnyardgrass ([14]; 31 g ai/ha): 55 | Plant response rating, Barnyardgrass ([14]; 62 g ai/ha): 75 | Plant response rating, Barnyardgrass ([14]; 125 g ai/ha): 98 | Plant response rating, Galium ([15]; 16 g ai/ha): 0 | Plant response rating, Galium ([15]; 31 g ai/ha): 80 | Plant response rating, Galium ([15]; 62 g ai/ha): 60 | Plant response rating, Galium ([15]; 125 g ai/ha): 98 | Plant response rating, Lambsquarters ([16]; 16 g ai/ha): 35 | Plant response rating, Lambsquarters ([16]; 31 g ai/ha): 25 | Plant response rating, Lambsquarters ([16]; 62 g ai/ha): 35 | Plant response rating, Lambsquarters ([16]; 125 g ai/ha): 75 | Plant response rating, Oilseed Rape ([17]; 16 g ai/ha): 0 | Plant response rating, Oilseed Rape ([17]; 31 g ai/ha): 10 | Plant response rating, Oilseed Rape ([17]; 62 g ai/ha): 70 | Plant response rating, Oilseed Rape ([17]; 125 g ai/ha): 80 | Plant response rating, Nutsedge, Yellow ([18]; 16 g ai/ha): 0 | Plant response rating, Nutsedge, Yellow ([18]; 31 g ai/ha): 0 | Plant response rating, Nutsedge, Yellow ([18]; 62 g ai/ha): 0 | Plant response rating, Nutsedge, Yellow ([18]; 125 g ai/ha): 0
